Earlier results, collected in US20070122366A1 (priority 2005, published 2007).

Experiments:
[1] = oral administration
[2] = system: onychomycosis

persistence of concentration in nails ([1]; after the treatment has finished): at least 30 weeks
time at which concentration in nails is detected ([1]; after therapy started): within the first week
Compound: CN(C/C=C/C#CC(C)(C)C)Cc1cccc2ccccc12 [Terbinafine]
average mycological cure ([2]; 18 randomized controlled trials, onychomycosis): 76%
activity in comparative studies ([2]; treatment of toenail onychomycosis): greater than itraconazole and fluconazole
